Source: US10548911B2, “Small molecule anti-scarring agents” (UNIVERSITY OF ROCHESTER, priority 2014, dated 2020)
“Also recorded” adds a separate entry of the source.

What was measured:
[1] = test system: primary human lung fibroblasts; assay: TGFβ-induced myofibroblast formation, αSMA Western blot and cell images, primary human lung fibroblasts; type: cell-based
Procedure: Human lung fibroblasts were treated with various concentrations of 10-hydroxycamptothecin (HCPT) (50 nM or 500 nM) and induced to form scar-forming myofibroblasts by treating with TGFβ.

[2] = test system: primary mouse lung fibroblasts; assay: TGFβ-induced myofibroblast formation, αSMA Western blot, primary mouse lung fibroblasts; type: cell-based; conditions: HCPT 50 nM to 500 nM
Procedure: Salinomycin and alexidine served as positive controls for anti-fibrotic activity. Western blots were performed using cell lysates from the fibroblasts exposed to TGFβ to assess TGFβ-dependent αSMA expression.

[3] = test system: primary human orbital fibroblasts; assay: TGFβ-induced myofibroblast formation, αSMA Western blot, primary human orbital fibroblasts; conditions: HCPT 50 nM to 500 nM, TGFβ
Procedure: Total protein was isolated from 0.5-2×10^6 cells and lysed in 60 mM Tris, pH 6.8, 2% SDS containing 1× protease inhibitor cocktail (Sigma, St. Louis, Mo.). The lysates were passed through a 26 gauge needle 5-6 times to shear genomic DNA. Protein concentrations were determined using the detergent compatible protein assay (BioRad). Total protein (1-10 ug per lane) was subjected to SDS-PAGE. Protein gels were transferred to PVDF membrane (Millipore) and probed with antibodies as specified. Western blot band intensities were quantified using ImageLab software (BioRad). Protein expression was normalized to β-tubulin levels.
Primary human orbital fibroblasts, primary human lung fibroblasts, and primary mouse lung fibroblasts were treated with TGFβ and HCPT (50 nM, 500 nM, and 5000 nM) or SNC (500 nM) or AXD (0.5 μM, 5 μM, and 50 μM) to assess the ability of HCPT to inhibit myofibroblast formation. […] Western blots were performed using cell lysates from the fibroblasts exposed to TGFβ to assess TGFβ-dependent αSMA expression.
Primary human orbital fibroblasts were treated with TGFβ and either 6-formylindolo(3,2-b)carbazole (“FICZ”, 1 μM), Omeprazole (“Ome”, 2 μM, 10 μM, 50 μM, 100 μM, 250 μM, 500 μM), or Flutamide (“Flut”, 2 μM, 10 μM, 50 μM, 100 μM, 250 μM, 500 μM) to assess their ability to inhibit myofibroblast formation. […] Western blots were performed using cell lysates from the fibroblasts exposed to TGFβ to assess TGFβ-dependent αSMA expression. Densitometry analyses of the Western blots were also performed.

With CC[C@@]1(O)C(=O)OCc2c1cc1n(c2=O)Cc2cc3cc(O)ccc3nc2-1 [HCPT, 10-hydroxycamptothecin] the “overt toxicity (cell images)” value ([1]; HCPT 50 nM or 500 nM) was “without being overtly toxic; also recorded: with out being overtly toxic”, the “formation of myofibroblasts (cell images)” value ([1]; HCPT 50 nM or 500 nM, TGFβ) was “not in samples treated with HCPT or SNC; also recorded: not in samples with HCPT or salinomycin (SNC)” and the “myofibroblast formation (relative αSMA expression)” value ([1]; HCPT 50 nM to 500 nM, TGFβ) was “potently blocks myofibroblast formation; also recorded: dose-dependent inhibition of αSMA”. For the same molecule, the “myofibroblast formation (relative αSMA expression)” value [2] was “less effective in blocking myofibroblast formation; also recorded: potently blocks myofibroblast formation” and the “myofibroblast formation (relative αSMA expression)” value [3] was “potently blocks myofibroblast formation; also recorded: dose-dependent inhibition of αSMA”.
